According to US5464820A, “Specific inhibitors of tissue kallikrein” (priority 1993, dated 1995):
Several values for one entry are separate records, joined by “and”; a condition that tells them apart may be missing. Equal values may be shown once. Read-outs that look alike come from different tables or passages of the source. Blank lines part the entries; values can stand above or below the compound they belong to. Non-standard residues stand in square brackets, D forms with d. Residues, ends and D or L forms follow the SMILES beside them. Phe(4-NH2) = Nc1ccc(C[C@H](N)C(=O)O)cc1; 2Nal = N[C@@H](Cc1ccc2ccccc2c1)C(=O)O; Phe(2-F) = N[C@@H](Cc1ccccc1F)C(=O)O; hPhe = N[C@@H](CCc1ccccc1)C(=O)O; 2Thi = N[C@@H](Cc1cccs1)C(=O)O; Cit = NC(=O)NCCC[C@H](N)C(=O)O; Phg = N[C@H](C(=O)O)c1ccccc1; hLys = NCCCCC[C@H](N)C(=O)O; hSer = N[C@@H](CCO)C(=O)O

Key:
Type in all cases: biochemical
[1] = target: porcine pancreatic kallikrein (PPK) (Sus scrofa, UniProt P00752); experiment: Inhibition of porcine pancreatic kallikrein, cleavage of chromogenic substrate S-2266 (KI)
[2] = target: human plasma kallikrein (HPK) (Homo sapiens, UniProt P03952); experiment: Inhibition of human plasma kallikrein (KI)
Excerpt: (§1) Assay methods were based on the cleavage of chromogenic substrate S-2266 (D-Val-Leu-Arg-pNA) (Kabi; Charlotte, N.C.) by porcine pancreatic kallikrein (Sigma Chemical Company; St. Louis, Mo.) to yield an increase in absorbance at 405 nm. By changing the substrate and enzyme, the general method has been extended to measure the inhibition of human tissue kallikrein (HTK or human urinary kallikrein HUK), human plasma kallikrein (HPK), plasmin, and urokinase (UK). In all assays, the robot dilutes the inhibitor into a series of wells and adds substrate and buffer. Chromogenic reactions are started by the addition of enzyme. Changes in the absorbance at 405 nm in an array of wells were recorded. All manipulations were performed by the instrument from reservoirs containing substrate, inhibitor, diluent (water), buffer, or enzyme.

[3] = target: T1, human urinary kallikrein (HUK) (Homo sapiens, UniProt P06870); experiment: Inhibition of human urinary (tissue) kallikrein (KI); settings: read-out: KI HUK
T1 construct: Human urinary kallikrein (HUK) was purified from human urine; from tissue
Method: Human urinary kallikrein (HUK) was purified from human urine. Briefly, urine was subjected to ultrafiltration to concentrate the protein components which were applied to approtinin-CH-Sepharose affinity columns. Active fractions from these columns were next applied to Sephadex G-100 gel filtration and collected as fractions. The pH of each fraction was determined immediately upon elution, and the fraction was neutralized by addition of 2.0 ml of 2M Tris-HCL buffer, pH 8.0. Porcine pancreatic 24-kallikrein (PPK), at 50 units/mg protein; 1.0 units hydrolyses 1.0 μM BAEE (benzoyl -L-arginine ethyl ester) to N-a-benzoyl-L-arginine/minute at pH 8.7 at 25° C., was purchased from Sigma Chemical Company (St. Louis, Mo.). […] All other enzymes were purchased from Sigma Chemical Company (St. Louis, Mo.).
Dixon plots were used for data reduction and for calculation of […].
as §1

[4] = Table 5, Pro-Phe-Arg-X-Val-Gln, read-out: KI PPK
[5] = Table 5, Pro-Phe-Arg-X-Val-Gln, read-out: KI HPK
[6] = Table 4, Pro-X-Arg-Ser-Val-Gln, read-out: KI PPK
[7] = Table 4, Pro-X-Arg-Ser-Val-Gln, read-out: KI HPK

Sequence of porcine pancreatic kallikrein (PPK) (P00752 8-87 limits assumed): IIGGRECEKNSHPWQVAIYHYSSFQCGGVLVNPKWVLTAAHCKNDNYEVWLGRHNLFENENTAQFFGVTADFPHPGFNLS
Sequence of porcine pancreatic kallikrein (PPK) (P00752 95-246 limits assumed): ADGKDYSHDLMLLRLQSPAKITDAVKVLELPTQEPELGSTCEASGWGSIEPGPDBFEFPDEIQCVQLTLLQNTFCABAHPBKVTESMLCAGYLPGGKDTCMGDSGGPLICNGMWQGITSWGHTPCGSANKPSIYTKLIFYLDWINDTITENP
Sequence of human plasma kallikrein (HPK) (P03952 20-638): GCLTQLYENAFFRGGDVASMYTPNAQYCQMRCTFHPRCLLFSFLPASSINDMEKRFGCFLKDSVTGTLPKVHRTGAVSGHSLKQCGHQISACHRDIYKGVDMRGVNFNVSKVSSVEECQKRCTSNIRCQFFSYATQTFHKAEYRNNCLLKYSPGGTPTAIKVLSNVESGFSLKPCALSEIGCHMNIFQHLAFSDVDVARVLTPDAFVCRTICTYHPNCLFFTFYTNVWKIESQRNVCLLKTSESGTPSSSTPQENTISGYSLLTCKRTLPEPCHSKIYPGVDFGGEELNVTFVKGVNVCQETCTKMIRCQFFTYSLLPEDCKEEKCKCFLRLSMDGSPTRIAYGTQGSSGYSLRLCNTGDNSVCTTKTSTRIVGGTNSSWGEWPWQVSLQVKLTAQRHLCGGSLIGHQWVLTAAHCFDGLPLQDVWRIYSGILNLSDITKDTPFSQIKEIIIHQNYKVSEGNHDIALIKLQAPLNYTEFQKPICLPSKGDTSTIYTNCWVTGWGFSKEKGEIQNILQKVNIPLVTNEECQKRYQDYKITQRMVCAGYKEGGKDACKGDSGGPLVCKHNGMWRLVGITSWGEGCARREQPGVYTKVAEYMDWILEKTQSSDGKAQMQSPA
T1 sequence (P06870 25-262): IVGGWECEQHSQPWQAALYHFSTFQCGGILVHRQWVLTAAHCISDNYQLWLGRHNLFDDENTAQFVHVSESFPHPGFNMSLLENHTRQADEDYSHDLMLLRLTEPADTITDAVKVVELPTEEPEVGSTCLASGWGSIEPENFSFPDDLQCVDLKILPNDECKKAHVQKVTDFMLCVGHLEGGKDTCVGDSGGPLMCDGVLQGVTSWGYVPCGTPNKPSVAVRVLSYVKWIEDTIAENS

- Ki [1, 4]: 0.131 mM and 0.161 mM
- Ki [2, 5]: 0.536 mM
Compound: CC(C)[C@H](NC(=O)[C@H](C)NC(=O)[C@H](CCCNC(=N)N)NC(=O)[C@H](Cc1ccccc1)NC(=O)[C@@H]1CCCN1)C(=O)N[C@@H](CCC(N)=O)C(N)=O [Ala] (H-PFRAVQ-NH2)

- Ki ([2]; Table 6, HUK, read-out: KI HUK): 0.052 mM
Compound: N=C(N)NCCC[C@H](NC(=O)[C@H](CC(N)=O)NC(=O)[C@H](CCCNC(=N)N)NC(=O)[C@H](Cc1ccccc1)NC(=O)[C@@H](N)CCCNC(=N)N)C(=O)N[C@@H](CCC(N)=O)C(N)=O [Arg-Phe-Arg-Asn-Arg-Gln] (H-RFRNRQ-NH2)

- Ki [1, 4]: 0.058 mM and 0.099 mM and 0.067 mM
- Ki ([1]; Table 5, values in [] : Dithiothreitol, read-out: KI PPK): 0.033 mM
- Ki ([3]; Table 5, Pro-Phe-Arg-X-Val-Gln): 99 µM
- Ki [2, 5]: 0.244 mM
Compound: CC(C)[C@H](NC(=O)[C@H](CC(N)=O)NC(=O)[C@H](CCCNC(=N)N)NC(=O)[C@H](Cc1ccccc1)NC(=O)[C@@H]1CCCN1)C(=O)N[C@@H](CCC(N)=O)C(N)=O [Asn] (H-PFRNVQ-NH2)

- Ki [1, 4]: 1.12 mM
Compound: CC(C)[C@H](NC(=O)[C@@H](CO)NC(=O)[C@H](CCCNC(=N)N)NC(=O)[C@H](Cc1ccccc1)NC(=O)[C@@H]1CCCN1)C(=O)N[C@@H](CCC(N)=O)C(N)=O [D-Ser] (H-PFR[dS]VQ-NH2)

- Ki [1, 4]: 0.163 mM
- Ki [2, 5]: 0.359 mM
Compound: CC(C)[C@H](NC(=O)[C@H](CCO)NC(=O)[C@H](CCCNC(=N)N)NC(=O)[C@H](Cc1ccccc1)NC(=O)[C@@H]1CCCN1)C(=O)N[C@@H](CCC(N)=O)C(N)=O [Hse] (H-PFR[hSer]VQ-NH2)

- Ki [1, 6]: 0.124 mM
- Ki ([3]; Table 4, Pro-X-Arg-Ser-Val-Gln): 151 µM
- Ki [2, 7]: 0.472 mM
Compound: CC(C)[C@H](NC(=O)[C@H](CO)NC(=O)[C@H](CCCNC(=N)N)NC(=O)[C@H](Cc1ccccc1F)NC(=O)[C@@H]1CCCN1)C(=O)N[C@@H](CCC(N)=O)C(N)=O [KCH-1] (H-P[Phe(2-F)]RSVQ-NH2)

- Ki [1, 6]: 0.402 mM
- Ki [2, 7]: 0.545 mM
Compound: CC(C)[C@H](NC(=O)[C@H](CO)NC(=O)[C@H](CCCNC(=N)N)NC(=O)[C@H](CCc1ccccc1)NC(=O)[C@@H]1CCCN1)C(=O)N[C@@H](CCC(N)=O)C(N)=O [KCH-2] (H-P[hPhe]RSVQ-NH2)

- Ki [1, 6]: 0.109 mM
- Ki ([3]; Table 4, Pro-X-Arg-Ser-Val-Gln): 249 µM
- Ki [2, 7]: 0.497 mM
Compound: CC(C)[C@H](NC(=O)[C@H](CO)NC(=O)[C@H](CCCNC(=N)N)NC(=O)[C@H](Cc1cccs1)NC(=O)[C@@H]1CCCN1)C(=O)N[C@@H](CCC(N)=O)C(N)=O [KCH-4] (H-P[2Thi]RSVQ-NH2)

- Ki [1, 6]: 1.32 mM
- KI HPK ([2]; Table 4, Pro-X-Arg-Ser-Val-Gln): ni
Compound: CC(C)[C@H](NC(=O)[C@H](CO)NC(=O)[C@H](CCCNC(=N)N)NC(=O)[C@@H](NC(=O)[C@@H]1CCCN1)c1ccccc1)C(=O)N[C@@H](CCC(N)=O)C(N)=O [KCH-5] (H-P[Phg]RSVQ-NH2)

- Ki [1, 6]: 0.133 mM
- Ki ([3]; Table 4, Pro-X-Arg-Ser-Val-Gln): 114 µM
- Ki [2, 7]: 0.665 mM
Compound: CC(C)[C@H](NC(=O)[C@H](CO)NC(=O)[C@H](CCCNC(=N)N)NC(=O)[C@H](Cc1ccc2ccccc2c1)NC(=O)[C@@H]1CCCN1)C(=O)N[C@@H](CCC(N)=O)C(N)=O [KCH-6] (H-P[2Nal]RSVQ-NH2)

- Ki [1, 6]: 0.23 mM
- Ki [2, 7]: 0.449 mM
Compound: CC(C)[C@H](NC(=O)[C@H](CO)NC(=O)[C@H](CCCNC(=N)N)NC(=O)[C@H](Cc1c[nH]c2ccccc12)NC(=O)[C@@H]1CCCN1)C(=O)N[C@@H](CCC(N)=O)C(N)=O [KCH-11] (H-PWRSVQ-NH2)

- Ki ([1]; Table 7, in mM, read-out: K1 PPK): > 3 mM
- Ki ([2]; Table 7, in mM, read-out: K1 HPK): > 5 mM
Compound: CC(C)[C@H](NC(=O)[C@H](CO)NC(=O)[C@H](CCCNC(N)=O)NC(=O)[C@H](Cc1ccccc1)NC(=O)[C@@H]1CCCN1)C(=O)N[C@@H](CCC(N)=O)C(N)=O [KIDZ-7, Pro-Phe-Cit-Ser-Val-Gln] (H-PF[Cit]SVQ-NH2)

- Ki ([1]; Table 7, read-out: K1 PPK): 0.203 mM
Compound: CC(C)[C@H](NC(=O)[C@H](CO)NC(=O)[C@H](CCCCCN)NC(=O)[C@H](Cc1ccccc1)NC(=O)[C@@H]1CCCN1)C(=O)N[C@@H](CCC(N)=O)C(N)=O [KIDZ-8, Pro-Phe-hLys-Ser-Val-Gln] (H-PF[hLys]SVQ-NH2)

- Ki ([1]; Table 7, read-out: K1 PPK): 0.16 mM
Compound: CC(C)[C@H](N)C(=O)N[C@@H](Cc1ccccc1)C(=O)N[C@H](C=O)Cc1ccc(N)cc1 [KITDS-2, Val-Phe-Phe(4NH2)-aldehyde] (H-Val-Phe-[Phe(4-NH2)]-aldehyde)
